ChEMBL document CHEMBL5291721, “A preclinical secondary pharmacology resource illuminates target-adverse drug reaction associations of marketed drugs” (Nat Commun, 2023)

Legend:
[1] = target: Sodium-dependent serotonin transporter (Homo sapiens, UniProt P31645)
[2] = target: 5-hydroxytryptamine receptor 2B (Homo sapiens, UniProt P41595); type: functional, cell-based
[3] = target: T1, Prostaglandin G/H synthase 1 (Homo sapiens, UniProt P23219); type: functional
Histamine H3 receptor = Histamine H3 receptor (Homo sapiens, UniProt Q9Y5N1)
Histamine H3 receptor, sequence (Q9Y5N1 whole entry): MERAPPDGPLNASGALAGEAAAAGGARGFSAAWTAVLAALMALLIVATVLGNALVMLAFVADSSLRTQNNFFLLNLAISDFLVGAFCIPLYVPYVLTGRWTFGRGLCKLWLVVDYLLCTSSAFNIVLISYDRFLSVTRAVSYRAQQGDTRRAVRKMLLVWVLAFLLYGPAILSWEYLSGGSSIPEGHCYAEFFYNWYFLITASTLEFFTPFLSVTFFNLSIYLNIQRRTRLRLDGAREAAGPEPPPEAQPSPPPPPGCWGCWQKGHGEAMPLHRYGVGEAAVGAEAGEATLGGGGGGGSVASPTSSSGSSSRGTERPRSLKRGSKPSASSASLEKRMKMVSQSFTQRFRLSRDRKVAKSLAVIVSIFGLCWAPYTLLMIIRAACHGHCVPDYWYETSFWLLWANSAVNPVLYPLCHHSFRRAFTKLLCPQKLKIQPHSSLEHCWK

[4] = target: T2, Alpha-2A adrenergic receptor (Homo sapiens, UniProt P08913)
T2 sequence (P08913 whole entry): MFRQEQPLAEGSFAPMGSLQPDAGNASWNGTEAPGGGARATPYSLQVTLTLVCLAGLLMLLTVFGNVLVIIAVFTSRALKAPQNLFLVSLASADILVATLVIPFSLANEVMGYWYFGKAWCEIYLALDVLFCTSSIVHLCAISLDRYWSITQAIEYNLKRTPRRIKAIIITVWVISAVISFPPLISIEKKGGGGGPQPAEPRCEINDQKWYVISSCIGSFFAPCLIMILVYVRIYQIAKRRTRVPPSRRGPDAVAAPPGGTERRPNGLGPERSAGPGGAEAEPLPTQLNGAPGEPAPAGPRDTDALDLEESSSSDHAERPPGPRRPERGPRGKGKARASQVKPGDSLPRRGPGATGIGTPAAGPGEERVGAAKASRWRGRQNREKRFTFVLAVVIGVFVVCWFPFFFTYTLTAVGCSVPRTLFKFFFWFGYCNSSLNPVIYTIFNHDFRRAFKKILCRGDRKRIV

D(1A) dopamine receptor = D(1A) dopamine receptor (Homo sapiens, UniProt P21728)
D(1A) dopamine receptor, sequence (P21728 whole entry): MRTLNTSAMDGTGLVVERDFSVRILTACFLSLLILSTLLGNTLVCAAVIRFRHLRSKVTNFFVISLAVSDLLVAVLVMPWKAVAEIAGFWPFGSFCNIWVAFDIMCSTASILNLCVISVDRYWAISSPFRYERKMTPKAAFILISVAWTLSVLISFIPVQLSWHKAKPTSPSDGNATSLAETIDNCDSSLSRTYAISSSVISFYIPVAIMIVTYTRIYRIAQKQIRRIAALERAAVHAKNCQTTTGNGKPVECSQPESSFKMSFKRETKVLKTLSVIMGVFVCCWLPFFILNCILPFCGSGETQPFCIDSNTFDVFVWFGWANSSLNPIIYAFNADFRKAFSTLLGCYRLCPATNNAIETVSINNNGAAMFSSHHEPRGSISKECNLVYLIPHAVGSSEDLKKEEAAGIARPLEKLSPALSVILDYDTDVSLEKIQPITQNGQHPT

D(3) dopamine receptor = D(3) dopamine receptor (Homo sapiens, UniProt P35462)
D(3) dopamine receptor, sequence (P35462 whole entry): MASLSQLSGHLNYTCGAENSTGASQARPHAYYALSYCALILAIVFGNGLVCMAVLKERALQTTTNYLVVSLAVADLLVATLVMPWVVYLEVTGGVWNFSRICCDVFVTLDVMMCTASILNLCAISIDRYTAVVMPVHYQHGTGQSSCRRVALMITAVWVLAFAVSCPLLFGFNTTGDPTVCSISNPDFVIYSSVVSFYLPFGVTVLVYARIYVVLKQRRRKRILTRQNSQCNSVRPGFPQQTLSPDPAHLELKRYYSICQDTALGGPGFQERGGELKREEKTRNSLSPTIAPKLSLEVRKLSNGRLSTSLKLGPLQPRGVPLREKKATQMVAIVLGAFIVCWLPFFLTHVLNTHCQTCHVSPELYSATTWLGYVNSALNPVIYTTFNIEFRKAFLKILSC

Prothrombin = Prothrombin (Homo sapiens, UniProt P00734); type: functional
[5] = target: T1, Prostaglandin G/H synthase 1; type: functional; remark: listed apart in the source
Mu-type opioid receptor = Mu-type opioid receptor (Homo sapiens, UniProt P35372)
Mu-type opioid receptor, sequence (P35372 whole entry): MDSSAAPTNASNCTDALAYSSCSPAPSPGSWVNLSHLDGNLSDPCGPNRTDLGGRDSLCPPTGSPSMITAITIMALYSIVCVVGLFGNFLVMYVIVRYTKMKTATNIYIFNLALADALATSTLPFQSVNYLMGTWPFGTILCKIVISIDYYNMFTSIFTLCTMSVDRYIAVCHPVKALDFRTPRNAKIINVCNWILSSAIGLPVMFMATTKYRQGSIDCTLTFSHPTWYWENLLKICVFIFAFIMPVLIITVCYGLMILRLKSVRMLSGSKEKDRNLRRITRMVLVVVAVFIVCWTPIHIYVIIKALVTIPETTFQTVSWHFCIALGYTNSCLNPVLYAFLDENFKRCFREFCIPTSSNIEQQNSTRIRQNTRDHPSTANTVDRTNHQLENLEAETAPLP

[6] = target: Voltage-gated inwardly rectifying potassium channel KCNH2 (Homo sapiens, UniProt Q12809); type: functional; conditions: read-out: AC50
Voltage-gated inwardly rectifying potassium channel KCNH2, sequence (Q12809 whole entry): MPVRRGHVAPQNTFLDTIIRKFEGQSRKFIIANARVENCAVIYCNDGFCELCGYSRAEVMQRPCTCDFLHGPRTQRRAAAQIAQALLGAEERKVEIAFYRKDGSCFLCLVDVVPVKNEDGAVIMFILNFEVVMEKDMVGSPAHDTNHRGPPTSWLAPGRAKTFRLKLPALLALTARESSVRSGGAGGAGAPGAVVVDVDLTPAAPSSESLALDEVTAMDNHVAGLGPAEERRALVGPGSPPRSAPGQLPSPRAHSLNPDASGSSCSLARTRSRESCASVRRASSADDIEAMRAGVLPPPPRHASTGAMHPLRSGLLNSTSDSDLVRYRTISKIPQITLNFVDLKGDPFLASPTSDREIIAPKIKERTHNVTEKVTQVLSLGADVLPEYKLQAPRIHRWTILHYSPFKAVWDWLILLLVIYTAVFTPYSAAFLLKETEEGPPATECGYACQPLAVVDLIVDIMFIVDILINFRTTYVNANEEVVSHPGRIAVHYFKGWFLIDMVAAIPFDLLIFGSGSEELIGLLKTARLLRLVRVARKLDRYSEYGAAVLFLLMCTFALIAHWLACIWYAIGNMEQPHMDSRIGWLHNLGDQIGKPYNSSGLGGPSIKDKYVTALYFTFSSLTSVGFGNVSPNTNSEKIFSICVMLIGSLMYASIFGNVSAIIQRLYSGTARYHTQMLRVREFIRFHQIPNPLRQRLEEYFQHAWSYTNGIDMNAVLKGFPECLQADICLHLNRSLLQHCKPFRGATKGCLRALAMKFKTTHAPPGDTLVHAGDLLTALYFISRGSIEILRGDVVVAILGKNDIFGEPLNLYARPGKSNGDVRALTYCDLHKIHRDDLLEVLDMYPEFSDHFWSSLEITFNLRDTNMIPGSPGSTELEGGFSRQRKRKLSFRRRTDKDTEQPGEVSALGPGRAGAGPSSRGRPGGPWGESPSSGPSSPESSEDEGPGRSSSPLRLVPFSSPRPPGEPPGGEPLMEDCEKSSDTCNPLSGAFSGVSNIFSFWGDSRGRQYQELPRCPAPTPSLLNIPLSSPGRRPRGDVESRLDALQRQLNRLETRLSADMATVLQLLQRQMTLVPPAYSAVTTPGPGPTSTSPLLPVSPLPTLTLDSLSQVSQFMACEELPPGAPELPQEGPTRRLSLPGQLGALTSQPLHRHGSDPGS

Thromboxane A2 receptor = target: T3, Thromboxane A2 receptor (Homo sapiens, UniProt P21731); type: functional, cell-based
T3 sequence (P21731 whole entry): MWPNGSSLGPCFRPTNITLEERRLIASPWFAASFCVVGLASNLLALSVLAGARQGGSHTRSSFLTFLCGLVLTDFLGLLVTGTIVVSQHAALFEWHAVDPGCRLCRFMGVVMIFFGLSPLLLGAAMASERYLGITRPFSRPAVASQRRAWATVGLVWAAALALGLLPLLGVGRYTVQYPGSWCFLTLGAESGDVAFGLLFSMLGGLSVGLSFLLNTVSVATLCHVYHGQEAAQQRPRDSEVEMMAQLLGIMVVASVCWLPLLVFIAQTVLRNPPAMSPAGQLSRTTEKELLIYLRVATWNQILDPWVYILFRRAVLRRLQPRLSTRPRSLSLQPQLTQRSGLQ

[7] = target: T4, Muscarinic acetylcholine receptor M2 (Homo sapiens, UniProt P08172)
T4 sequence (P08172 whole entry): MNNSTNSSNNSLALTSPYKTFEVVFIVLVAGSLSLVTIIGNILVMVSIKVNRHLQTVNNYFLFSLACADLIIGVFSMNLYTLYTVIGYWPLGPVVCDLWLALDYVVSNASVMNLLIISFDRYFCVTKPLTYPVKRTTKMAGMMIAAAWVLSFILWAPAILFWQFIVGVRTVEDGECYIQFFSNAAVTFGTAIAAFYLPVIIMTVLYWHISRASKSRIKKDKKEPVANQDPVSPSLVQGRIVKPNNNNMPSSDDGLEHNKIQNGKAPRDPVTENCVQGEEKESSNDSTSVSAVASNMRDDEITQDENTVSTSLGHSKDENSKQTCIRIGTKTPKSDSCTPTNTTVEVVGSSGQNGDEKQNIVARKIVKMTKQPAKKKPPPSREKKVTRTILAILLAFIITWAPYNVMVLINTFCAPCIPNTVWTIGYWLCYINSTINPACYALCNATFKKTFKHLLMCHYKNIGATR

Adenosine receptor A3 = target: T5, Adenosine receptor A3 (Homo sapiens, UniProt P0DMS8)
T5 sequence (P0DMS8 whole entry): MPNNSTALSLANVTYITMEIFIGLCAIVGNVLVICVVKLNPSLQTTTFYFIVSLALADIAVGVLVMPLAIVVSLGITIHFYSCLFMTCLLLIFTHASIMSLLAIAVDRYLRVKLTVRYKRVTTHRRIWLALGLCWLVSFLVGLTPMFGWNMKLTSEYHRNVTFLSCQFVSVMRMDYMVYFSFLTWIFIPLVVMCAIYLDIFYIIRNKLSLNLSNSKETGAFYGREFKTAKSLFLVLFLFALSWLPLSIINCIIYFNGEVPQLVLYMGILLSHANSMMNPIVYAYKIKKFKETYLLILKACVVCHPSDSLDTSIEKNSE

[8] = target: T6, Alpha-1A adrenergic receptor (Homo sapiens, UniProt P35348); type: functional, cell-based
T6 sequence (P35348 whole entry): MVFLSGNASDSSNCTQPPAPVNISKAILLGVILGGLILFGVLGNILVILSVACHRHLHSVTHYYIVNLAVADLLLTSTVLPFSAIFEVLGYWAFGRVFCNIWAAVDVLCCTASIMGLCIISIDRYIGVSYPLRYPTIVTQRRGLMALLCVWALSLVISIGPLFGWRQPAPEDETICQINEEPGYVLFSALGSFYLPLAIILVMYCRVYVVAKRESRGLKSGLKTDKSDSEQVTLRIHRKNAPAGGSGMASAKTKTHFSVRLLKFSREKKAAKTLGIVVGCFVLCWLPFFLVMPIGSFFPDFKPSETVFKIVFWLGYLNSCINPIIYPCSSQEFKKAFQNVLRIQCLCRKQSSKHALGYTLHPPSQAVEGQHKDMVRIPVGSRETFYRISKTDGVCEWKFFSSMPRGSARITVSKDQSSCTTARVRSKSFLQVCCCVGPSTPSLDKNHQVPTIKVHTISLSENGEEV
Also: assay procedure not described here.

T1 sequence (P23219 whole entry): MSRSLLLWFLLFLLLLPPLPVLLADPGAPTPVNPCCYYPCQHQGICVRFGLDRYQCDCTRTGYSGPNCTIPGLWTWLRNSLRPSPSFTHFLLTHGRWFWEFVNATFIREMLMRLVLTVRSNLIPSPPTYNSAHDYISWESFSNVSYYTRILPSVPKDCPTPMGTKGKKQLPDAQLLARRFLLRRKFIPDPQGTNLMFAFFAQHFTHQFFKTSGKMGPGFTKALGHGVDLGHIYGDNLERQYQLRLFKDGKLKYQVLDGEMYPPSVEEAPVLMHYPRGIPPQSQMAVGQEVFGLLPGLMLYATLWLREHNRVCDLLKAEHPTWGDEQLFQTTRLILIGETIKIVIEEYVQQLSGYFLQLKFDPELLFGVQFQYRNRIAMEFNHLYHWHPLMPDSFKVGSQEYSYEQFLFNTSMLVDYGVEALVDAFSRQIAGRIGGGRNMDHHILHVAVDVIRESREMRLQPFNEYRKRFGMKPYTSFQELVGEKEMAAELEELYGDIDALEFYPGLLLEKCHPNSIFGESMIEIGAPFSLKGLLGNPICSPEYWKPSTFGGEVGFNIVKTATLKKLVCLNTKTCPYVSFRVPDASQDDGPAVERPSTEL
Sodium-dependent serotonin transporter, sequence (P31645 whole entry): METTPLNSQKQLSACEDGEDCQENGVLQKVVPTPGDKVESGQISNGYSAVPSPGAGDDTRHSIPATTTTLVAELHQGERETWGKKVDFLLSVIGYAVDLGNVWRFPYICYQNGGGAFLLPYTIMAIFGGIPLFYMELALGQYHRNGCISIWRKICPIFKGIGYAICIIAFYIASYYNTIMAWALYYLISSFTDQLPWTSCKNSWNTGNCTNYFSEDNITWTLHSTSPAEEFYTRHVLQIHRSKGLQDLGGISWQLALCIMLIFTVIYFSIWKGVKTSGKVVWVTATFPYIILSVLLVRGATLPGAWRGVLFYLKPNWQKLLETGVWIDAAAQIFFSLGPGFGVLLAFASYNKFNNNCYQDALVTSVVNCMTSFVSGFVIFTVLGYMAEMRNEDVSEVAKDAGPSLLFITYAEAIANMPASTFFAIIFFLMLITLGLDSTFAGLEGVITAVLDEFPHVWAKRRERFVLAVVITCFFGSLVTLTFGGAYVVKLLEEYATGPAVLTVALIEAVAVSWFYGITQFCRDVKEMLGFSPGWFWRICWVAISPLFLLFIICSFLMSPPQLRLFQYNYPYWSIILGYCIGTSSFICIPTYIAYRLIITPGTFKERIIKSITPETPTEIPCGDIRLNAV
5-hydroxytryptamine receptor 2B, sequence (P41595 whole entry): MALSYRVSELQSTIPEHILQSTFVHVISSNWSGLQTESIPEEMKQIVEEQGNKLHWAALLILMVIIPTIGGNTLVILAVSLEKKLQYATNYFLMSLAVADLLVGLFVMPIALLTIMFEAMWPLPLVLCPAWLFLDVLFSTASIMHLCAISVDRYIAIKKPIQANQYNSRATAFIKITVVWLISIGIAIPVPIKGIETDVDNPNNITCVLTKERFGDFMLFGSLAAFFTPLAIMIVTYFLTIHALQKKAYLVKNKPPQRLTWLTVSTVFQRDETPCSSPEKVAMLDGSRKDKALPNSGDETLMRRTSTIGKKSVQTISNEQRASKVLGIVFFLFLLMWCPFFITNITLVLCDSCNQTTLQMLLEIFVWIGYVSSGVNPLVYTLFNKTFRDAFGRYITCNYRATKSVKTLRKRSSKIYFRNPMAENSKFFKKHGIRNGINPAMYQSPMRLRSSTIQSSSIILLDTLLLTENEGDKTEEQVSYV

SMILES	AC50 [1]	AC50 [2]	AC50 [3]	AC50 (Histamine H3 receptor)	AC50 [4]	AC50 (D(1A) dopamine receptor)	AC50 (D(3) dopamine receptor)	AC50 (Prothrombin)	AC50 [5]	AC50 (Mu-type opioid receptor)	AC50 [6]	AC50 (Thromboxane A2 receptor)	AC50 [7]	AC50 (Adenosine receptor A3)	AC50 [8]
CO/N=C(\C(=O)N[C@@H]1C(=O)N2C(C(=O)OCOC(=O)C(C)(C)C)=C(C)CS[C@H]12)c1csc(N)n1	> 30 µM	> 30 µM	23.2 µM	> 30 µM	> 30 µM	> 30 µM	> 30 µM	> 30 µM	> 30 µM	> 30 µM	> 30 µM	> 30 µM	> 30 µM	–	–
O=C(Cn1ccnc1[N+](=O)[O-])NCc1ccccc1 [BENZNIDAZOLE]	> 30 µM	> 30 µM	> 30 µM	> 30 µM	> 30 µM	> 30 µM	> 30 µM	> 30 µM	> 30 µM	> 30 µM	–	> 30 µM	> 30 µM	–	–
COCC1=C(C(=O)OC(C)OC(=O)OC(C)C)N2C(=O)[C@@H](NC(=O)/C(=N\OC)c3csc(N)n3)[C@H]2SC1 (stereo not given in full) [CEFPODOXIME PROXETIL]	> 30 µM	> 30 µM	18.1 µM	> 30 µM	> 30 µM	> 30 µM	> 30 µM	> 30 µM	> 30 µM	> 30 µM	> 30 µM	> 30 µM	> 30 µM	–	–
NS(=O)(=O)c1cc2c(cc1Cl)NC(CC1CCCC1)NS2(=O)=O (stereo not given) [CYCLOPENTHIAZIDE]	> 30 µM	> 30 µM	> 30 µM	> 30 µM	> 30 µM	> 30 µM	> 30 µM	> 30 µM	> 30 µM	> 30 µM	> 30 µM	> 30 µM	> 30 µM	–	–
N/N=c1/cc2c(n[nH]1)CCN(C(=O)c1ccccc1)C2 [ENDRALAZINE]	> 30 µM	> 30 µM	> 30 µM	> 30 µM	> 30 µM	> 30 µM	> 30 µM	> 30 µM	22.3 µM	> 30 µM	> 30 µM	> 30 µM	> 30 µM	–	–
CC(C)=CCC1C(=O)N(c2ccccc2)N(c2ccccc2)C1=O [FEPRAZONE]	> 30 µM	> 30 µM	0.26 µM	> 30 µM	> 30 µM	> 30 µM	> 30 µM	> 30 µM	> 30 µM	> 30 µM	–	> 30 µM	> 30 µM	–	–
CN1C(=O)N(C)C2C1N(C)C(=O)N2C (stereo not given) [MEBICAR]	> 30 µM	> 30 µM	> 30 µM	> 30 µM	> 30 µM	> 30 µM	> 30 µM	> 30 µM	> 30 µM	> 30 µM	> 30 µM	> 30 µM	> 30 µM	–	–
Nc1nc2c(ncn2CCC(CO)CO)c(=O)[nH]1 [PENCICLOVIR]	–	> 30 µM	> 30 µM	> 30 µM	> 30 µM	> 30 µM	> 30 µM	> 30 µM	> 30 µM	> 30 µM	> 30 µM	> 30 µM	> 30 µM	> 30 µM	> 30 µM
Nc1ccc(/N=N/c2ccccc2)c(N)n1 [PHENAZOPYRIDINE]	> 30 µM	> 30 µM	> 30 µM	> 30 µM	> 30 µM	9.35 µM	> 30 µM	> 30 µM	24.9 µM	> 30 µM	14 µM	28.4 µM	> 30 µM	–	–
O=C1CCC(N2C(=O)c3ccccc3C2=O)C(=O)N1 (stereo not given) [THALIDOMIDE]	–	> 30 µM	> 30 µM	> 30 µM	> 30 µM	> 30 µM	> 30 µM	> 30 µM	> 30 µM	0.202 µM	> 30 µM	> 30 µM	14.8 µM	> 30 µM	> 30 µM
